Test system: industrial S. cerevisiae strains ATCC 7754 and ATCC 4921
Experiment: Growth/resistance of industrial yeast strains, untransformed and transformed with pCP2-4-10
Format: cell-based, Saccharomyces cerevisiae
Conditions: for resistance of industrial transformants to structurally related sulfonylurea growth inhibitors: ATCC 7754 and ATCC 4921 transformed with pCP2-4-10
Experimental: […]. […] The optimum period of incubation with glusulase for producing spheroplasts was determined to be approximately 3 hours.
The resulting industrial transformants were resistant to other, structurally related sulfonylurea growth inhibitors in addition to sulfometuron methyl. These inhibitors included N-[(4-methoxy-6-methyl-pyrimidin-2-yl)aminocarbonyl]-2-nitrobenzenesulfonamide; N-[(4,6-dimethoxy-pyrimidin-2-yl)-aminocarbonyl]-2-methylthiobenzenesulfonamide; and 2-[[(4-chloro-6-methoxypyrimidine-2-yl)amino carbonyl]aminosulfonyl]benzoic acid, ethyl ester.

Row | Compound | resistance of industrial transformants to structurally related sulfonylurea growth inhibitors | growth of untransformed wild-type strains (30 μg/mL, ATCC 7754 and ATCC 4921, untransformed)
1 | CCOC(=O)c1ccccc1S(=O)(=O)NC(=O)Nc1nc(Cl)cc(OC)n1 [2-[[(4-chloro-6-methoxypyrimidine-2-yl)aminocarbonyl]aminosulfonyl]benzoic acid, ethyl ester] | resistant | 
2 | COc1cc(OC)nc(NC(=O)NS(=O)(=O)c2ccccc2SC)n1 [N-[(4,6-dimethoxy-pyrimidin-2-yl)-aminocarbonyl]-2-methylthiobenzenesulfonamide] | resistant | 
3 | COc1cc(C)nc(NC(=O)NS(=O)(=O)c2ccccc2[N+](=O)[O-])n1 [N-[(4-methoxy-6-methyl-pyrimidin-2-yl)aminocarbonyl]-2-nitrobenzenesulfonamide] | resistant | 
4 | COC(=O)c1ccccc1S(=O)(=O)NC(=O)Nc1nc(C)cc(C)n1 [sulfometuron methyl] |  | completely inhibited

— patent US4626505A, “Selectable markers for yeast transformation” (E. I. Du Pont de Nemours and Company, priority 1984, dated 1986)
